Laboratory results reported in patent US11572369B2, “Bicyclic pyridine compositions and methods of using the same for cancer therapy” (UNIVERSITY OF SOUTH CAROLINA, priority 2019, dated 2023).

How the values were obtained:
Test in all cases: KINOMEscan
Type in all cases: binding
Conditions in all cases: 2000 nM
ACVR1 = biological target: T1, ACVR1 (Homo sapiens, UniProt Q04771)
T1 construct: purchased DiscoveRx (KINOMEscan scanMAX panel, service)

ALK = biological target: T2, ALK (Homo sapiens, UniProt Q9UM73)
T2 construct: purchased DiscoveRx (KINOMEscan scanMAX panel, service)

CAMKK2 = biological target: T3, CAMKK2 (Homo sapiens, UniProt Q96RR4)
T3 construct: DNA label (qPCR read-out); purchased KINOMEscan (ScanMAX panel service)
T3 sequence (Q96RR4 whole entry): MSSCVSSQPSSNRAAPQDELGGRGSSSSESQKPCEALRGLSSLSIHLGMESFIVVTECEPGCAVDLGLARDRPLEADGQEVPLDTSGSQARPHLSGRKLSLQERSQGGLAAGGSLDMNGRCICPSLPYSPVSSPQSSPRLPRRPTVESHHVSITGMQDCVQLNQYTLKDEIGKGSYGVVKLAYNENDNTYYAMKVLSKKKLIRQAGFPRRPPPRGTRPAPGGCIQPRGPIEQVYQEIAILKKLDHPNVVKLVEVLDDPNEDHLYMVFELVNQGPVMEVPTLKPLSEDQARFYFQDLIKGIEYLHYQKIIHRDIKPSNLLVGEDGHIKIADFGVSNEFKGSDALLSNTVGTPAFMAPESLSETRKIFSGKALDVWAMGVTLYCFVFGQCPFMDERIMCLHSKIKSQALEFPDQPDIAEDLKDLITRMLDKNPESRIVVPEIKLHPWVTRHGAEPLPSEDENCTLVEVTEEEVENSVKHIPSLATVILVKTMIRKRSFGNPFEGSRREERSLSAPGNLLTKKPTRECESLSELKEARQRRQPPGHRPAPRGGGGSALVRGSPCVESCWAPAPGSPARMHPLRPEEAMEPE

CDC2L2 = biological target: T4, CDC2L2 (Homo sapiens, UniProt Q9UQ88)
T4 construct: purchased DiscoverX (KINOMEscan service)

CSK = biological target: T5, CSK (Homo sapiens, UniProt P41240)
T5 construct: DNA label; purchased DiscoveRx (KINOMEscan scanMAX panel)

CSNK1G1 = biological target: T6, CSNK1G1 (Homo sapiens, UniProt Q9HCP0)
T6 construct: DNA label; purchased DiscoveRx (KINOMEscan scanMAX panel)

CSNK2A1 = biological target: T7, CSNK2A1 (Homo sapiens, UniProt P68400)
T7 construct: DNA label; purchased DiscoveRx (KINOMEscan scanMAX panel)
T7 sequence (P68400 whole entry): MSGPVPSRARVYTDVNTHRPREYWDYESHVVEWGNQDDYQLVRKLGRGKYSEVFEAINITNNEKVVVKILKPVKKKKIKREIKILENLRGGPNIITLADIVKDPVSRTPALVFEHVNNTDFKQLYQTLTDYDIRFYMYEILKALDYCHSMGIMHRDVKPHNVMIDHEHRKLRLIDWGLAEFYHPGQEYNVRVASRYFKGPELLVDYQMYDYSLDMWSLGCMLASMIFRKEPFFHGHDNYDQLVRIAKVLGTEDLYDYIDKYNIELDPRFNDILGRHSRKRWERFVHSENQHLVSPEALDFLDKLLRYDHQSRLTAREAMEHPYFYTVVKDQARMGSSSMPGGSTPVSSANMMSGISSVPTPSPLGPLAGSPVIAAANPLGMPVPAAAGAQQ

EGFR(L858R,T790M) = biological target: T8, EGFR(L858R,T790M) (Homo sapiens, UniProt P00533, L858R/T790M)
T8 construct: purchased DiscoveRx (KINOMEscan scanMAX panel)

EGFR(T790M) = biological target: T9, EGFR(T790M) (Homo sapiens, UniProt P00533, T790M)
T9 construct: purchased DiscoveRx (KINOMEscan scanMAX panel)

EPHB6 = biological target: T10, EPHB6 (Homo sapiens, UniProt O15197)
T10 construct: DNA label (qPCR read-out); purchased DiscoveRx (KINOMEscan ScanMAX panel)

FGR = biological target: T11, FGR (Homo sapiens, UniProt P09769)
T11 construct: purchased DiscoveRx (KINOMEscan scanMAX panel)

FRK = biological target: T12, FRK (Homo sapiens, UniProt P42685)
T12 construct: purchased KINOMEscan (DiscoveRx)

MAP3K4 = MAP3K4 (Homo sapiens, UniProt Q9Y6R4)
MARK2 = MARK2 (Homo sapiens, UniProt Q7KZI7)
MST3 = biological target: T13, MST3 (Homo sapiens, UniProt Q9Y6E0)
T13 construct: DNA label (for qPCR read-out); purchased KINOMEscan scanMAX panel (DiscoveRx)

MYLK2 = biological target: T14, MYLK2 (Homo sapiens, UniProt Q9H1R3)
T14 construct: DNA label (for qPCR read-out); purchased KINOMEscan scanMAX panel (DiscoveRx)
T14 sequence (Q9H1R3 whole entry): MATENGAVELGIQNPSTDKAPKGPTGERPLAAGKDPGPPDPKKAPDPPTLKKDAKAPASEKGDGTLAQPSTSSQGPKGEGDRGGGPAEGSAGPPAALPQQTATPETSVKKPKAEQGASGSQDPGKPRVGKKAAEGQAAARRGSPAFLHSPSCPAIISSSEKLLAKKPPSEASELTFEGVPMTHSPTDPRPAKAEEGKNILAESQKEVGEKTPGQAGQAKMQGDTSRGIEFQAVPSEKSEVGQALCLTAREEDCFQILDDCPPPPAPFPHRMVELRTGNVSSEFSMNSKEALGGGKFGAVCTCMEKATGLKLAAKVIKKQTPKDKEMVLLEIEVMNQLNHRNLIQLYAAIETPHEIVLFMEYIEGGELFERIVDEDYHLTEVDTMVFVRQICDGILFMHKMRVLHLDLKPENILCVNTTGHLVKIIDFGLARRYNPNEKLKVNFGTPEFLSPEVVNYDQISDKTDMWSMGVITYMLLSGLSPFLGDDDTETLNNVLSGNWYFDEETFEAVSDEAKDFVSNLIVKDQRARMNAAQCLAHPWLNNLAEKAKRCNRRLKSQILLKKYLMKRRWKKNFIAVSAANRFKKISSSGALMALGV

NEK10 = biological target: T15, NEK10 (Homo sapiens, UniProt Q6ZWH5)
T15 construct: DNA label (qPCR read-out); purchased KINOMEscan (ScanMAX panel service)

PAK3 = biological target: T16, PAK3 (Homo sapiens, UniProt O75914)
T16 construct: purchased DiscoverX (KINOMEscan service)

PDPK1 = biological target: T17, PDPK1 (Homo sapiens, UniProt O15530)
T17 construct: DNA label (for qPCR read-out); purchased DiscoveRx (KINOMEscan scanMAX service)
T17 sequence (O15530 whole entry): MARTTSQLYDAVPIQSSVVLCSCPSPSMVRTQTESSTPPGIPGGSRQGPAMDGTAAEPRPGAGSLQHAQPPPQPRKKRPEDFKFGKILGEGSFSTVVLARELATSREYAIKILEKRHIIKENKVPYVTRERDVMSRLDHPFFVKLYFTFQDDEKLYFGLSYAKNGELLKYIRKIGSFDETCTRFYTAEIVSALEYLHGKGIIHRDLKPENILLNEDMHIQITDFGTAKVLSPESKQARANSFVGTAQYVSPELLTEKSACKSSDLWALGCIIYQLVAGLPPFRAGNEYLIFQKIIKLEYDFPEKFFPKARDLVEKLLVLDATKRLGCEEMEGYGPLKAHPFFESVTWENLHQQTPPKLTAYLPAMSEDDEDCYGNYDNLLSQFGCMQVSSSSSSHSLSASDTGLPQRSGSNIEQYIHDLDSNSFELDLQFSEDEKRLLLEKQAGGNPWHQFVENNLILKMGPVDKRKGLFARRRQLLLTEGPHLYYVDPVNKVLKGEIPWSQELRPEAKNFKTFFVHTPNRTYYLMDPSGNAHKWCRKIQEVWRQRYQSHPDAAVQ

PIK3CA(I800L) = biological target: T18, PIK3CA(I800L) (Homo sapiens, UniProt P42336, I800L)
T18 construct: DNA label; purchased DiscoveRx (KINOMEscan scanMAX panel)

PIM2 = biological target: T19, PIM2 (Homo sapiens, UniProt Q9P1W9)
T19 construct: DNA label (qPCR read-out); purchased KINOMEscan (DiscoveRx) panel

PRKCE = biological target: T20, PRKCE (Homo sapiens, UniProt Q02156)
T20 construct: purchased DiscoveRx (KINOMEscan scanMAX panel)

PRKG2 = biological target: T21, PRKG2 (Homo sapiens, UniProt Q13237)
T21 construct: purchased DiscoveRx (KINOMEscan scanMAX panel)

RET = biological target: T22, RET (Homo sapiens, UniProt P07949)
T22 construct: purchased DiscoveRx (KINOMEscan scanMAX panel)

[1] = biological target: T23, RPS6KA5(Kin.Dom.1-N-terminal) (Homo sapiens, UniProt O75582)
T23 construct: Kin.Dom.1; DNA label (qPCR read-out); purchased DiscoveRx (KINOMEscan ScanMAX panel)

SGK = biological target: T24, SGK (Homo sapiens, UniProt O00141)
T24 construct: purchased DiscoveRx (KINOMEscan scanMAX panel)

SIK2 = biological target: T25, SIK2 (Homo sapiens, UniProt Q9H0K1)
T25 construct: purchased KINOMEscan (DiscoveRx)

SRC = biological target: T26, SRC (Homo sapiens, UniProt P12931)
T26 construct: purchased KINOMEscan (DiscoveRx)

STK16 = biological target: T27, STK16 (Homo sapiens, UniProt O75716)
T27 construct: DNA label (for qPCR read-out); purchased DiscoveRx (KINOMEscan scanMAX panel, contract assay)
T27 sequence (O75716 whole entry): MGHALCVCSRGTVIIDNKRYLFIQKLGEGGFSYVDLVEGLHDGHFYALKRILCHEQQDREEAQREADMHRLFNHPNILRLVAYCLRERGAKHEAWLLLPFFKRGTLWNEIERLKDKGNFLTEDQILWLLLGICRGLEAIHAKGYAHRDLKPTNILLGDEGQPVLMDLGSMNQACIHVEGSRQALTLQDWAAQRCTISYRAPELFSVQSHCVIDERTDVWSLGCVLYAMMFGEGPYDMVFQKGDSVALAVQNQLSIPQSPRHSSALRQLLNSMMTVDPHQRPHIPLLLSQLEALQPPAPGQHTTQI

TAK1 = biological target: T28, TAK1 (Homo sapiens, UniProt O43318)
T28 construct: DNA label (for qPCR read-out); purchased DiscoveRx (KINOMEscan scanMAX panel, contract assay)

TAOK3 = biological target: T29, TAOK3 (Homo sapiens, UniProt Q9H2K8)
T29 construct: DNA label (for qPCR read-out); purchased DiscoveRx (KINOMEscan scanMAX panel, contract assay)

TEC = biological target: T30, TEC (Homo sapiens, UniProt P42680)
T30 construct: DNA label (for qPCR read-out); purchased DiscoveRx (KINOMEscan scanMAX panel, contract assay)

TLK2 = biological target: T31, TLK2 (Homo sapiens, UniProt Q86UE8)
T31 construct: DNA label (qPCR read-out); purchased KINOMEscan (DiscoveRx) ScanMAX panel
T31 sequence (Q86UE8 whole entry): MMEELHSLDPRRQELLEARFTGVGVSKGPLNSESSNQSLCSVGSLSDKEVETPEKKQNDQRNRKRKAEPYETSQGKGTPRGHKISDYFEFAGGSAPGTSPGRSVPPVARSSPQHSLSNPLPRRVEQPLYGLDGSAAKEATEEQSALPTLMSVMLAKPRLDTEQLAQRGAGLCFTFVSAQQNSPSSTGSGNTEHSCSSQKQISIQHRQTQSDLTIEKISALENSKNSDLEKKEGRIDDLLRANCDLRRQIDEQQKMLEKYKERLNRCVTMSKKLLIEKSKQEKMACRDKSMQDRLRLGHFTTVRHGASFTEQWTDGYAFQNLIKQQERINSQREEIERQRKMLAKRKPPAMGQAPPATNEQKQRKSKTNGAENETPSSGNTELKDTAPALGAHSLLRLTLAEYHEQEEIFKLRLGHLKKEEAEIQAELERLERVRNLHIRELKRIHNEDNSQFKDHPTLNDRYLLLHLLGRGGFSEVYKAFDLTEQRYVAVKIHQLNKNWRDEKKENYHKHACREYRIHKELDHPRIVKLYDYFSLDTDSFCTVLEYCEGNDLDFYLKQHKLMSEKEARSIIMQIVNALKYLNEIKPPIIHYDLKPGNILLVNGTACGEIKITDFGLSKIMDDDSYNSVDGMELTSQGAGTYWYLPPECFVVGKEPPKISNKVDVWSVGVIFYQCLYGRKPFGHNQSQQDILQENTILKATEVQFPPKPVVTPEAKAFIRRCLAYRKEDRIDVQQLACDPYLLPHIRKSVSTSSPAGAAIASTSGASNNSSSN

VPS34 = biological target: T32, VPS34 (Homo sapiens, UniProt Q8NEB9)
T32 construct: DNA label (for qPCR read-out); purchased DiscoveRx (KINOMEscan scanMAX panel)
T32 sequence (Q8NEB9 whole entry): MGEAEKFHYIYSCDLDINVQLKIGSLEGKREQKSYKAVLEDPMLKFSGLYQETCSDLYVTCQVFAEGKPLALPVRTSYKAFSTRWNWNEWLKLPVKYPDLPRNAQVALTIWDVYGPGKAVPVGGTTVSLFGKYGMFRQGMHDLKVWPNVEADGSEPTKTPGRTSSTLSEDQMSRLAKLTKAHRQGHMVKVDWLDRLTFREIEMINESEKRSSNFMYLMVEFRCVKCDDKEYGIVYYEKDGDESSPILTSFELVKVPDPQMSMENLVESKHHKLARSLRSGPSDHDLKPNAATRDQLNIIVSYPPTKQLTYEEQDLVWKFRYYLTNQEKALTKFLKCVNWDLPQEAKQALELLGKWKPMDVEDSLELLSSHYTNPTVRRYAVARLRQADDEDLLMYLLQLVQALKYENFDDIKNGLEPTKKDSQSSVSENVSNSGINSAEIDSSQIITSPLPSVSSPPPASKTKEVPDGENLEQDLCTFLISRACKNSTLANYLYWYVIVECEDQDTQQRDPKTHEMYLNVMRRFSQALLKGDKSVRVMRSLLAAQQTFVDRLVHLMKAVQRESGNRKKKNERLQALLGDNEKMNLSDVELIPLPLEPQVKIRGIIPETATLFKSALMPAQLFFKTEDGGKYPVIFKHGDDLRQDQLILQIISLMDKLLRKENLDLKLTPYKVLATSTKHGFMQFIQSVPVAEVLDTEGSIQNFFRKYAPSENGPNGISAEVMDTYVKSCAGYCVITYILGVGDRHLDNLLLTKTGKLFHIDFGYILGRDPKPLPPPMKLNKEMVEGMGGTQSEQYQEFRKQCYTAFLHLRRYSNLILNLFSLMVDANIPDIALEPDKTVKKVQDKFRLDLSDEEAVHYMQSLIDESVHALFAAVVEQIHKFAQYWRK

WEE2 = biological target: T33, WEE2 (Homo sapiens, UniProt P0C1S8)
T33 construct: purchased KINOMEscan (DiscoveRx) panel service

YSK1 = biological target: T34, YSK1 (Homo sapiens, UniProt O00506)
T34 construct: purchased KINOMEscan (DiscoveRx) panel service
T34 sequence (O00506 whole entry): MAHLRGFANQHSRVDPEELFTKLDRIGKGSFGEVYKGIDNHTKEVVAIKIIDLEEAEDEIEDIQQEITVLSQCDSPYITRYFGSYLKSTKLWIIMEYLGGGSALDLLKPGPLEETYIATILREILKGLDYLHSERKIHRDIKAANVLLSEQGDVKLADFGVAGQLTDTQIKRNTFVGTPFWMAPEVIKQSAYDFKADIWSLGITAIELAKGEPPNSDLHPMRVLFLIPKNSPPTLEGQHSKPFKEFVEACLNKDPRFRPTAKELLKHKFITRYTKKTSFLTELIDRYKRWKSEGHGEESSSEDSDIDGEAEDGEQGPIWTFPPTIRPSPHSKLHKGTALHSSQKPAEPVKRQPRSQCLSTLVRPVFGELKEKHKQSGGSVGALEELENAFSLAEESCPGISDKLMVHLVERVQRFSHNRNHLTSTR

T1 sequence (Q04771 21-509): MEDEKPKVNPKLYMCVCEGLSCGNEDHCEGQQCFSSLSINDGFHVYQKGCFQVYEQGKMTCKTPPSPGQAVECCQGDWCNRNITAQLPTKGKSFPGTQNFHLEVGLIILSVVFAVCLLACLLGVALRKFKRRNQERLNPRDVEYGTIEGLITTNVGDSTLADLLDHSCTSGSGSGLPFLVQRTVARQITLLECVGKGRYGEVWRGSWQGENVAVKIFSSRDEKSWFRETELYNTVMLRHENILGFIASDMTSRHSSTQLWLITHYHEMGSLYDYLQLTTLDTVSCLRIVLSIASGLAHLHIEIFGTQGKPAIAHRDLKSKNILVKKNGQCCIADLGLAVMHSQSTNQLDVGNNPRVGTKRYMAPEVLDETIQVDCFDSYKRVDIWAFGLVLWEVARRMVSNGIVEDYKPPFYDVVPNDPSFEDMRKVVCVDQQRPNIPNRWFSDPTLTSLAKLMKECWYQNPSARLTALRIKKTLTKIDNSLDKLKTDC

For `CN(C)C(=O)c1ccc(N2CCCN(c3ccnc4sc(C(N)=O)c(N)c34)CC2)cc1` [15u, 3-amino-4-(4-(4-(dimethylcarbamoyl)phenyl)-1,4-diazepan-1-yl)thieno[2,3-b]pyridine-2-carboxamide], the “% Ctrl” value (ACVR1) was 100 % Ctrl, the “% Ctrl” value (ALK) was 81 % Ctrl and the “% Ctrl” value (CAMKK2) was 100 % Ctrl. For the same molecule, the “% Ctrl” value (CDC2L2) was 100 % Ctrl, the “% Ctrl” value (CSK) was 86 % Ctrl and the “% Ctrl” value (CSNK1G1) was 90 % Ctrl. The “% Ctrl” value (CSNK2A1) was 100 % Ctrl, the “% Ctrl” value (EGFR(L858R,T790M)) was 100 % Ctrl and the “% Ctrl” value (EGFR(T790M)) was 98 % Ctrl. For the same molecule, the “% Ctrl” value (EPHB6) was 95 % Ctrl, the “% Ctrl” value (FGR) was 100 % Ctrl and the “% Ctrl” value (FRK) was 100 % Ctrl. The “% Ctrl” value (MAP3K4) was 90 % Ctrl, the “% Ctrl” value (MARK2) was 100 % Ctrl and the “% Ctrl” value (MST3) was 97 % Ctrl. The “% Ctrl” value (MYLK2) was 100 % Ctrl, the “% Ctrl” value (NEK10) was 93 % Ctrl and the “% Ctrl” value (PAK3) was 80 % Ctrl. For the same molecule, the “% Ctrl” value (PDPK1) was 100 % Ctrl, the “% Ctrl” value (PIK3CA(I800L)) was 97 % Ctrl and the “% Ctrl” value (PIM2) was 85 % Ctrl. For the same molecule, the “% Ctrl” value (PRKCE) was 93 % Ctrl, the “% Ctrl” value (PRKG2) was 98 % Ctrl and the “% Ctrl” value (RET) was 93 % Ctrl. For the same molecule, the “% Ctrl” value [1] was 75 % Ctrl, the “% Ctrl” value (SGK) was 86 % Ctrl and the “% Ctrl” value (SIK2) was 96 % Ctrl. The “% Ctrl” value (SRC) was 100 % Ctrl, the “% Ctrl” value (STK16) was 80 % Ctrl and the “% Ctrl” value (TAK1) was 93 % Ctrl. For the same molecule, the “% Ctrl” value (TAOK3) was 98 % Ctrl, the “% Ctrl” value (TEC) was 91 % Ctrl and the “% Ctrl” value (TLK2) was 100 % Ctrl. For the same molecule, the “% Ctrl” value (VPS34) was 85 % Ctrl, the “% Ctrl” value (WEE2) was 97 % Ctrl and the “% Ctrl” value (YSK1) was 76 % Ctrl.

In the case of `[2H]C([2H])([2H])N(C(=O)c1ccc(N2CCCN(c3ccnc4sc(C(N)=O)c(N)c34)CC2)cc1)C([2H])([2H])[2H]` [15u_D6, 3-amino-4-(4-(4-(bis(methyl-d3)carbamoyl)phenyl)-1,4-diazepan-1-yl)thieno[2,3-b]pyridine-2-carboxamide], the “% Ctrl” value (ACVR1) is reported as 100 % Ctrl, the “% Ctrl” value (ALK) is reported as 78 % Ctrl and the “% Ctrl” value (CAMKK2) is reported as 87 % Ctrl. For the same molecule, the “% Ctrl” value (CDC2L2) was 100 % Ctrl, the “% Ctrl” value (CSK) was 92 % Ctrl and the “% Ctrl” value (CSNK1G1) was 80 % Ctrl. The “% Ctrl” value (CSNK2A1) was 59 % Ctrl, the “% Ctrl” value (EGFR(L858R,T790M)) was 87 % Ctrl and the “% Ctrl” value (EGFR(T790M)) was 87 % Ctrl. For the same molecule, the “% Ctrl” value (EPHB6) was 89 % Ctrl, the “% Ctrl” value (FGR) was 100 % Ctrl and the “% Ctrl” value (FRK) was 97 % Ctrl. For the same molecule, the “% Ctrl” value (MAP3K4) was 100 % Ctrl, the “% Ctrl” value (MARK2) was 96 % Ctrl and the “% Ctrl” value (MST3) was 84 % Ctrl. The “% Ctrl” value (MYLK2) was 100 % Ctrl, the “% Ctrl” value (NEK10) was 61 % Ctrl and the “% Ctrl” value (PAK3) was 40 % Ctrl. The “% Ctrl” value (PDPK1) was 96 % Ctrl, the “% Ctrl” value (PIK3CA(I800L)) was 74 % Ctrl and the “% Ctrl” value (PIM2) was 89 % Ctrl. The “% Ctrl” value (PRKCE) was 97 % Ctrl, the “% Ctrl” value (PRKG2) was 90 % Ctrl and the “% Ctrl” value (RET) was 86 % Ctrl. For the same molecule, the “% Ctrl” value [1] was 100 % Ctrl, the “% Ctrl” value (SGK) was 83 % Ctrl and the “% Ctrl” value (SIK2) was 100 % Ctrl. For the same molecule, the “% Ctrl” value (SRC) was 96 % Ctrl, the “% Ctrl” value (STK16) was 87 % Ctrl and the “% Ctrl” value (TAK1) was 62 % Ctrl. The “% Ctrl” value (TAOK3) was 73 % Ctrl, the “% Ctrl” value (TEC) was 81 % Ctrl and the “% Ctrl” value (TLK2) was 97 % Ctrl. For the same molecule, the “% Ctrl” value (VPS34) was 65 % Ctrl, the “% Ctrl” value (WEE2) was 88 % Ctrl and the “% Ctrl” value (YSK1) was 98 % Ctrl.
